Columns and labels:
[1] = biological target: 3',5'-cyclic-AMP phosphodiesterase 4A (Homo sapiens, UniProt P27815); assay: Inhibitory activity against PDE4A
[2] = biological target: 3',5'-cyclic-AMP phosphodiesterase 4B (Homo sapiens, UniProt Q07343); assay: Inhibitory activity against PDE4B
[3] = biological target: 3',5'-cyclic-AMP phosphodiesterase 4C (Homo sapiens, UniProt Q08493); assay: Inhibitory activity against PDE4C
[4] = biological target: 3',5'-cyclic-AMP phosphodiesterase 4D (Homo sapiens, UniProt Q08499); assay: Inhibitory activity against PDE4D
[5] = biological target: T1, Phosphodiesterase 4 (Homo sapiens, UniProt P27815+Q08499+Q07343+Q08493); assay: Inhibition of LPS-induced TNFalpha production in human whole blood; format: functional, tissue-based
[6] = tested on: Cavia porcellus; assay: Inhibition of ovalbumin-induced bronchoconstriction in guinea pig at 1 mg/kg, ip; format: functional; conditions: route intraperitoneal
[7] = tested on: Mustela putorius furo; assay: Emetic threshold as plasma concentration in ferrets after 10 mg/kg oral dose; format: ADME, organism-based; set-up: dose 10 mg/kg, route oral; conditions: ferret, in vivo
[8] = Emetic threshold as plasma concentration in squirrel monkeys after 10 mg/kg oral dose; format: ADME, organism-based; set-up: dose 10 mg/kg, route oral; conditions: saimiri, read-out: Emesis_Cmax
[9] = biological target: T1, Phosphodiesterase 4; assay: Inhibition of LPS-induced TNFalpha production in squirrel monkey whole blood; format: functional, tissue-based, Saimiri sciureus; conditions: target entry is the homologue from another species
[10] = Cmax in rat at 20 mg/kg, po; format: ADME, organism-based; set-up: dose 20 mg/kg, route oral; conditions: in vivo
[11] = Oral bioavailability in rat at 20 mg/kg, po; format: ADME, organism-based; conditions: in vivo
[12] = Tmax in rat at 20 mg/kg, po; format: ADME, organism-based; set-up: dose 20 mg/kg, route oral; conditions: in vivo
[13] = tested on: Cavia porcellus; assay: Inhibition of ovalbumin-induced bronchoconstriction in guinea pig at 0.03 mg/kg, ip; format: functional; conditions: route intraperitoneal
[14] = tested on: Ovis aries; assay: Inhibition of early-phase antigen induced bronchoconstriction in Ascaris sensitive sheep at 0.5 mg/kg/day, iv; format: functional
[15] = tested on: Ovis aries; assay: Inhibition of late-phase antigen induced bronchoconstriction in Ascaris sensitive sheep at 0.5 mg/kg/day, iv; format: functional
[16] = Emetic threshold as plasma concentration in ferrets after 30 mg/kg oral dose; format: ADME, organism-based, Mustela putorius furo; set-up: dose 30 mg/kg, route oral; conditions: ferret, read-out: Emesis_Cmax
[17] = tested on: Cavia porcellus; assay: Inhibition of ovalbumin-induced bronchoconstriction in guinea pig at 0.01 mg/kg, ip; format: functional; conditions: route intraperitoneal
[18] = Emetic threshold as plasma concentration in squirrel monkeys after 0.5 mg/kg oral dose; format: ADME, organism-based; set-up: dose 0.5 mg/kg, route oral; conditions: saimiri, read-out: Emesis_Cmax
[19] = tested on: Cavia porcellus; assay: Inhibition of ovalbumin-induced bronchoconstriction in guinea pig at 0.3 mg/kg, ip; format: functional; conditions: route intraperitoneal
[20] = Emetic threshold as plasma concentration in ferrets after 1.0 mg/kg oral dose; format: ADME, organism-based, Mustela putorius furo; set-up: dose 1 mg/kg, route oral; conditions: ferret, read-out: Emesis_Cmax
[21] = Emetic threshold as plasma concentration in squirrel monkeys after 3 mg/kg oral dose; format: ADME, organism-based; set-up: dose 3 mg/kg, route oral; conditions: saimiri, read-out: Emesis_Cmax
[22] = tested on: Cavia porcellus; assay: Inhibition of ovalbumin-induced bronchoconstriction in guinea pig at 0.1 mg/kg, ip; format: functional; conditions: route intraperitoneal

3',5'-cyclic-AMP phosphodiesterase 4D, sequence (Q08499 whole entry): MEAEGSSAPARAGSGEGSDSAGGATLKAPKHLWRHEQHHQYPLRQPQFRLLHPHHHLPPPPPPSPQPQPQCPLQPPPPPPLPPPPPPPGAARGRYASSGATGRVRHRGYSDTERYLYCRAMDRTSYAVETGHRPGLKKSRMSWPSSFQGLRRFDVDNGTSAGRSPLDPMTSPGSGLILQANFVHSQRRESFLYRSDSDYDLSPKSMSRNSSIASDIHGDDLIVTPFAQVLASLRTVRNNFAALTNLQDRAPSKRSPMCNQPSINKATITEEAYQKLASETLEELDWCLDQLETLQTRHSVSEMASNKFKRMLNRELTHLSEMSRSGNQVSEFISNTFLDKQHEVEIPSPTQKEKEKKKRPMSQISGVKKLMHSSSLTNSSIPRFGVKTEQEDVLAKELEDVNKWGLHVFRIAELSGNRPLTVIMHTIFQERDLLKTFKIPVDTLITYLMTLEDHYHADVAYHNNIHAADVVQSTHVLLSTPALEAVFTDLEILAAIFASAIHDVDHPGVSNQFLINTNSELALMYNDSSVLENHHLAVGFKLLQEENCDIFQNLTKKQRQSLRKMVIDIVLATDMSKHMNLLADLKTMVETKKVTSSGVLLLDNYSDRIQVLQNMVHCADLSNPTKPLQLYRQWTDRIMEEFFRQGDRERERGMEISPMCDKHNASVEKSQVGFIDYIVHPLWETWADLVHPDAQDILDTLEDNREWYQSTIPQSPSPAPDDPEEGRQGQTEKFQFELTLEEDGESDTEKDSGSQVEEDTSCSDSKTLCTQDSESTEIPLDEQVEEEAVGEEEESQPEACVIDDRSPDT
3',5'-cyclic-AMP phosphodiesterase 4A, sequence (P27815 whole entry): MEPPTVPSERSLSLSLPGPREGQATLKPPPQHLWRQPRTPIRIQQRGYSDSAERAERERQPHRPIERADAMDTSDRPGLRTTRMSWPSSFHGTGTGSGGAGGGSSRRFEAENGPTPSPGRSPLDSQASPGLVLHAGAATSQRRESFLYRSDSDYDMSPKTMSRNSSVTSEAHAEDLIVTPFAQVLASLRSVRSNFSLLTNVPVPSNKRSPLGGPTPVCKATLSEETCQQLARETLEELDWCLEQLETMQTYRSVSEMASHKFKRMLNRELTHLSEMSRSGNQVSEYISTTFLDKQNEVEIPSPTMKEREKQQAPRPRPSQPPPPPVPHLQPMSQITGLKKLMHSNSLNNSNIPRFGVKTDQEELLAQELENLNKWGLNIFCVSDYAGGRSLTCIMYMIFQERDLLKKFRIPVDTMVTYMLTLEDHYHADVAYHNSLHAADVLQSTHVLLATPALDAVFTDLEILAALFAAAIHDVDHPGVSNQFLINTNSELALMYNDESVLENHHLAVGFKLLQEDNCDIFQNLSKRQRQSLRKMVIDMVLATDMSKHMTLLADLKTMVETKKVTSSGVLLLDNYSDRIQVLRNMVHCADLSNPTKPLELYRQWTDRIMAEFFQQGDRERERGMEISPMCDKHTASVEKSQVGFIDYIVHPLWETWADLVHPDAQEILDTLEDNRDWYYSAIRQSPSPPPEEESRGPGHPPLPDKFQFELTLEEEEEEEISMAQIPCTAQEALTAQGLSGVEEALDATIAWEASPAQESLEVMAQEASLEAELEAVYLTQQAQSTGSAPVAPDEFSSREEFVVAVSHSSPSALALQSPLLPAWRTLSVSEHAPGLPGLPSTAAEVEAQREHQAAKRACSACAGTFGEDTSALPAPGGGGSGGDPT
3',5'-cyclic-AMP phosphodiesterase 4B, sequence (Q07343 whole entry): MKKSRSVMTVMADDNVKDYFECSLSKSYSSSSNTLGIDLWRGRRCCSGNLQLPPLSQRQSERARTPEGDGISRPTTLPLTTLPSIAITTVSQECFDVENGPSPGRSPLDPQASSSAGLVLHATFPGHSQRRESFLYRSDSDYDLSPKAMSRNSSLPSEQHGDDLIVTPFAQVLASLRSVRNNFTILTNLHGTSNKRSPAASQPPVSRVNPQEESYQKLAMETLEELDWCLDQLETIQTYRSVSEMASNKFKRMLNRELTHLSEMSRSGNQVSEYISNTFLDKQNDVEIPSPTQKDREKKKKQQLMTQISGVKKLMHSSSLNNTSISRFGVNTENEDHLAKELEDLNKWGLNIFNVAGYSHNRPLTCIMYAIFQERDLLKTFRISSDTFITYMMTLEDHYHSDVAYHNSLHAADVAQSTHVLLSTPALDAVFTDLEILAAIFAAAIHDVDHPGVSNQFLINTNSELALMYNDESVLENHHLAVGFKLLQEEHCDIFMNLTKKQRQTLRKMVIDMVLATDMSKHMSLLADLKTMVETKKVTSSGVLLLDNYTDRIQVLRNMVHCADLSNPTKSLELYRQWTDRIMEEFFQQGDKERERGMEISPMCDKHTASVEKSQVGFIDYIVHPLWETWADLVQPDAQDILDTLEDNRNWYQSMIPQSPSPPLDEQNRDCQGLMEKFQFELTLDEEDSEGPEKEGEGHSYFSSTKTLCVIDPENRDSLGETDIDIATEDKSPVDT
3',5'-cyclic-AMP phosphodiesterase 4C, sequence (Q08493 whole entry): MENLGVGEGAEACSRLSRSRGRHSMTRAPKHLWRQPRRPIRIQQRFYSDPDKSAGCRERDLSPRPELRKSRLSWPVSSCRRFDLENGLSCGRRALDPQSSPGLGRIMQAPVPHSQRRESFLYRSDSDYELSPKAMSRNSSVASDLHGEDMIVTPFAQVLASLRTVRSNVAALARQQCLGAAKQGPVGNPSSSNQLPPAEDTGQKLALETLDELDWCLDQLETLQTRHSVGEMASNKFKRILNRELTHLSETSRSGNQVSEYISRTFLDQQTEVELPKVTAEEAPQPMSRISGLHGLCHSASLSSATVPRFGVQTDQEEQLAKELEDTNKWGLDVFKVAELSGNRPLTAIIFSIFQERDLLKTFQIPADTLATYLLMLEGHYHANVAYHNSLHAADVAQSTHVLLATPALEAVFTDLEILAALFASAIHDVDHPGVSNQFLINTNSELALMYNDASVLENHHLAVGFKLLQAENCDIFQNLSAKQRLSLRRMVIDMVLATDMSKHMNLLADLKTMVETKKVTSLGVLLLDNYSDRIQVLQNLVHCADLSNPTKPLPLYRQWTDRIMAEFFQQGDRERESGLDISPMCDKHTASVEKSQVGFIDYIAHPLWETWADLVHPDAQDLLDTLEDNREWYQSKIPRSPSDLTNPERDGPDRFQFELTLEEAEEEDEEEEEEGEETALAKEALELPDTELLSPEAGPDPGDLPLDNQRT

Row | IC50 [1] | IC50 [2] | IC50 [3] | IC50 [4] | IC50 [5] | Structure (SMILES) | further results
1 | 0.2 nM | 0.2 nM | 0.4 nM | 0.2 nM | 120 nM | Cc1ccc(/C(=C/c2cccc(-c3cc(C(C)C)cc4cccnc34)c2)c2ccc(S(C)(=O)=O)cc2)nc1 | 
2 | 0.3 nM | 0.3 nM | 3.8 nM | 0.5 nM | 1600 nM | CC(C)c1cc(-c2cccc(/C=C(/C(=O)O)c3ccc(S(C)(=O)=O)cc3)c2)c2ncccc2c1 | 
3 | 0.16 nM | 0.07 nM | 1.2 nM | 0.2 nM | 260 nM | Cc1noc(/C(=C/c2cccc(-c3cc(C(C)C)cc4cccnc34)c2)c2ccc(S(C)(=O)=O)cc2)n1 | Cmax [10]: 500 nM; bioavailability [11]: 11%; Tmax [12]: 0.5 h
4 | 0.47 nM | 0.3 nM | 0.7 nM | 0.19 nM | 120 nM | CC(C)c1cc(-c2cccc(/C=C(\c3ccc(S(C)(=O)=O)cc3)c3nccs3)c2)c2ncccc2c1 | 
5 | 0.4 nM | 0.3 nM | 0.5 nM | 0.5 nM | 610 nM | CC(C)c1cc(-c2cccc(/C=C(/c3ccc(C(C)(C)O)cc3)c3ccc(S(C)(=O)=O)cc3)c2)c2ncccc2c1 | 
6 | 0.3 nM | 0.3 nM | 2.9 nM | 0.6 nM | 140 nM | CC(C)NC(=O)/C(=C/c1cccc(-c2cc(C(C)C)cc3cccnc23)c1)c1ccc(S(C)(=O)=O)cc1 | 
7 | 1.7 nM | 1.1 nM | 11 nM | 2 nM | 210 nM | CC(c1cc(-c2cccc(/C=C(\c3ccc(S(C)(=O)=O)cc3)c3ncc(C(C)(C)O)s3)c2)c2ncccc2c1)S(C)(=O)=O (stereo not given) | 

Second part, the molecule before the results:

Row | Structure (SMILES) | IC50 [1] | IC50 [2] | IC50 [3] | IC50 [4] | IC50 [5] | further results
8 | CC(C)c1cc(-c2cccc(CC(c3ccncc3)C(C)(C)O)c2)c2ncccc2c1 (stereo not given) | 3.4 nM | 1.8 nM | 106 nM | 4.4 nM | 12000 nM | inhibition in vivo at 1 mg/kg [6]: 47%; Emesis_Cmax [7]: 2.9 µM; Cmax [8]: 11900 nM; IC50 [9]: 450 nM
9 | Cc1noc(/C(=C/c2cccc(-c3cc(C(C)C)cc4cccnc34)c2)c2ccccn2)n1 | 0.5 nM | 0.3 nM | 5.7 nM | 0.6 nM | 1200 nM | 
10 | CC(C)NC(=O)/C(=C/c1cccc(-c2cc(C(C)(C)C#N)cc3cccnc23)c1)c1ccc(S(C)(=O)=O)cc1 | 0.8 nM | 0.3 nM | 6.8 nM | 0.7 nM | 70 nM | Cmax [8]: 1900 nM; IC50 [9]: 15 nM; Cmax [10]: 4100 nM; bioavailability [11]: 80%; Tmax [12]: 6 h; inhibition in vivo at 0.03 mg/kg [13]: 75%
11 | COc1ccc([C@H](Cc2ccncc2)c2ccccc2)cc1OC1CCCC1 [CDP840] | 2.1 nM | 1.4 nM | 4.5 nM |  | 14000 nM | inhibition in vivo at 1 mg/kg [6]: 54%; inhibition in vivo at 0.5 mg/kg/day [14]: 39%; inhibition in vivo at 0.5 mg/kg/day [15]: 88%; Cmax [16]: 2500 nM; Cmax [8]: 4000 nM; IC50 [9]: 600 nM
12 | O=S(=O)(Nc1cccc(-c2cc(Cc3ccncc3)cc3cccnc23)c1)c1ccccc1 | 5.6 nM | 3 nM | 11.9 nM | 2 nM | 7800 nM | inhibition in vivo at 1 mg/kg [6]: 46%; Emesis_Cmax [7]: > 2 µM
13 | [O-][n+]1cccc(C[C@@H](c2ccc(OC(F)F)c(OC3CC3)c2)c2cnc(C(O)(C(F)(F)F)C(F)(F)F)s2)c1 | 0.4 nM | 0.4 nM | 1 nM | 0.4 nM | 90 nM | inhibition in vivo at 0.01 mg/kg [17]: 62%; inhibition in vivo at 0.5 mg/kg/day [14]: 68%; inhibition in vivo at 0.5 mg/kg/day [15]: 92%; Cmax [18]: 1600 nM; IC50 [9]: 5 nM
14 | COc1cccc(-c2cc(Cc3ccncc3)cc3cccnc23)c1 | 1.5 nM | 2.3 nM | 3.3 nM | 2.5 nM | 8300 nM | inhibition in vivo at 0.3 mg/kg [19]: 70%; Cmax [20]: 200 nM
15 | CC(C)c1cc(-c2cccc(C(Cc3cc[n+]([O-])cc3)c3ccc(Cl)cc3)c2)c2ncccc2c1 (stereo not given) | 52 nM | 19 nM | 68 nM | 45 nM | 11000 nM | 
16 | CC(C)c1cc(-c2cccc(C(Cc3ccncc3)c3ccc(Cl)cc3)c2)c2ncccc2c1 (stereo not given) | 11.8 nM | 6.4 nM | 22 nM | 38 nM | 31000 nM | 
17 | CC(C)NC(=O)/C(=C\c1cccc(-c2cc(C(C)(C)C#N)cc3cccnc23)c1)c1ccc(S(C)(=O)=O)cc1 | 1 nM | 0.4 nM | 11.4 nM | 0.5 nM | 210 nM | 
18 | Cc1noc(/C(=C/c2cccc(-c3cc(C(C)(C)S(C)(=O)=O)cc4cccnc34)c2)c2ccc(S(C)(=O)=O)cc2)n1 |  |  |  |  |  | inhibition in vivo at 0.5 mg/kg/day [14]: 73%; inhibition in vivo at 0.5 mg/kg/day [15]: 95%; Cmax [8]: 3800 nM; Cmax [10]: 5100 nM; bioavailability [11]: 100%; Tmax [12]: 6 h
19 | CC(C)NC(=O)/C(=C/c1cccc(-c2cc(C(C)(C)S(C)(=O)=O)cc3cccnc23)c1)c1ccc(S(C)(=O)=O)cc1 | 0.9 nM | 0.5 nM | 14 nM | 2.3 nM | 930 nM | Cmax [21]: > 2500 nM; inhibition in vivo at 0.1 mg/kg [22]: 59%

From ChEMBL document CHEMBL1141872 (Bioorg Med Chem Lett, 2005)
